Assays:
Format in all cases: in vivo
[1] = test system: redroot pigweed (Amaranthus retroflexus, AMARE); assay: Pre-emerge test, greenhouse herbicide activity screening; conditions: rated 14 days after application, 0 = no damage, 100 = complete death
Summary of the method: (§1)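 Visual ratings on a 0-100 scale (0 no damage, 100 all plants dead) were taken at 14 days after treatment. Rates of 15-1000 g ai/ha in acetone, 187 l/ha, were sprayed onto soil one day after planting (pre-emerge) or onto 2-3 leaf plants with 0.25% v/v surfactant (post-emerge).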

[2] = test system: barnyardgrass (Echinochloa crus-galli, ECHCG); assay: as above; conditions: rated 14 days after application, 0 = no damage, 100 = complete death
Summary of the method: as §1

[3] = test system: common ragweed (Ambrosia artemisizfolia L., AMBEL); assay: as above; conditions: rated 14 days after application, 0 = no damage, 100 = complete death
Summary of the method: as §1

[4] = test system: green foxtail (Setaria viridis, SETVI); assay: as above; conditions: rated 14 days after application, 0 = no damage, 100 = complete death
Summary of the method: as §1

[5] = test system: ivyleaf morningglory (Ipomoea hederacea, IPOHE); assay: as above; conditions: rated 14 days after application, 0 = no damage, 100 = complete death
Summary of the method: as §1

[6] = test system: johnsongrass (Sorghum halepense, SORHA); assay: as above; conditions: rated 14 days after application, 0 = no damage, 100 = complete death
Summary of the method: as §1

[7] = test system: lambsquarters (Chenopodium album, CHEAL); assay: as above; conditions: rated 14 days after application, 0 = no damage, 100 = complete death
Summary of the method: as §1

[8] = test system: large crabgrass (Digitaria sanguinalis, DIGSA); assay: as above; conditions: rated 14 days after application, 0 = no damage, 100 = complete death
Summary of the method: as §1

[9] = test system: sicklepod (Cassia obtusifolia, CASOB); assay: as above; conditions: rated 14 days after application, 0 = no damage, 100 = complete death
Summary of the method: as §1

[10] = test system: velvetleaf (Abutilon theophrasti, ABUTH); assay: as above; conditions: rated 14 days after application, 0 = no damage, 100 = complete death
Summary of the method: as §1

[11] = test system: field corn (Zea mays L., var. Dekalb 535, CORN); assay: Pre-emerge test, crop safety; conditions: rated 14 days after application, 0 = no damage, 100 = complete death
Summary of the method: (§2)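 Sandy loam pots; pre-emerge: sown 1 d pre-spray, surface-watered after, then bottom-watered. Post-emerge: sown 8–21 d before, 2–3 leaf stage, + 0.25% v/v NIS, bottom-watered. Acetone, 187 l/ha track spray, 15–1000 g ai/ha. 0–100 injury score, day 14.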

[12] = test system: upland rice (Oryza sp., var. Tebonnet, RICE); assay: Pre-emerge test, crop safety; conditions: rated 14 days after application, 0 = no damage, 100 = complete death
Summary of the method: as §2

[13] = test system: barnyardgrass (Echinochloa crus-galli, ECHCG); assay: Post-emerge test, greenhouse herbicide activity screening; conditions: post-emerge, 14 days after application, rating scale 0-100
Summary of the method: (§3)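 Compounds in acetone were track-sprayed at 15-1000 g ai/ha (187 l/ha) on sandy loam pots: pre-emerge one day after seeding, post-emerge at 2-3 leaf stage with 0.25% v/v non-ionic surfactant. Phytotoxicity was rated 14 days later on a 0 (no damage) to 100 (complete death) scale.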

[14] = test system: common ragweed (Ambrosia artemisizfolia L., AMBEL); assay: as above; conditions: post-emerge, 14 days after application, rating scale 0-100
Summary of the method: as §3

[15] = test system: green foxtail (Setaria viridis, SETVI); assay: as above; conditions: post-emerge, 14 days after application, rating scale 0-100
Summary of the method: as §3

[16] = test system: ivyleaf morningglory (Ipomoea hederacea, IPOHE); assay: as above; conditions: post-emerge, 14 days after application, rating scale 0-100
Summary of the method: as §3

[17] = test system: johnsongrass (Sorghum halepense, SORHA); assay: as above; conditions: post-emerge, 14 days after application, rating scale 0-100
Summary of the method: as §3

[18] = test system: lambsquarters (Chenopodium album, CHEAL); assay: as above; conditions: post-emerge, 14 days after application, rating scale 0-100
Summary of the method: as §3

[19] = test system: large crabgrass (Digitaria sanguinalis, DIGSA); assay: as above; conditions: post-emerge, 14 days after application, rating scale 0-100
Summary of the method: as §3

[20] = test system: redroot pigweed (Amaranthus retroflexus, AMARE); assay: as above; conditions: post-emerge, 14 days after application, rating scale 0-100
Summary of the method: as §3

[21] = test system: sicklepod (Cassia obtusifolia, CASOB); assay: as above; conditions: post-emerge, 14 days after application, rating scale 0-100
Summary of the method: as §3

[22] = test system: velvetleaf (Abutilon theophrasti, ABUTH); assay: as above; conditions: post-emerge, 14 days after application, rating scale 0-100
Summary of the method: as §3

[23] = test system: field corn (Zea mays L., var. Dekalb 535, CORN); assay: Post-emerge test, crop safety; conditions: post-emerge, 14 days after application, rating scale 0-100
Summary of the method: as §1

[24] = test system: upland rice (Oryza sp., var. Tebonnet, RICE); assay: Post-emerge test, crop safety; conditions: post-emerge, 14 days after application, rating scale 0-100
Summary of the method: as §1

COc1c(Cl)cc(F)c(-n2c(=O)cc(C(F)(F)F)n(N)c2=O)c1NC(=O)c1ccc(F)cc1F [2-44]
Pre-emerge Herbicidal Activity, phytotoxicity rating (0-100), AMARE ([1]; 63 g ai/ha): 100
Pre-emerge Herbicidal Activity, phytotoxicity rating (0-100), AMARE ([1]; 250 g ai/ha): 100
Pre-emerge Herbicidal Activity, phytotoxicity rating (0-100), ECHCG ([2]; 63 g ai/ha): 30
Pre-emerge Herbicidal Activity, phytotoxicity rating (0-100), ECHCG ([2]; 250 g ai/ha): 99
Pre-emerge Herbicidal Activity, phytotoxicity rating (0-100), AMBEL ([3]; 63 g ai/ha): 100
Pre-emerge Herbicidal Activity, phytotoxicity rating (0-100), AMBEL ([3]; 250 g ai/ha): 100
Pre-emerge Herbicidal Activity, phytotoxicity rating (0-100), SETVI ([4]; 63 g ai/ha): 90
Pre-emerge Herbicidal Activity, phytotoxicity rating (0-100), SETVI ([4]; 250 g ai/ha): 100
Pre-emerge Herbicidal Activity, phytotoxicity rating (0-100), IPOHE ([5]; 63 g ai/ha): 90
Pre-emerge Herbicidal Activity, phytotoxicity rating (0-100), IPOHE ([5]; 250 g ai/ha): 100
Pre-emerge Herbicidal Activity, phytotoxicity rating (0-100), SORHA ([6]; 63 g ai/ha): 50
Pre-emerge Herbicidal Activity, phytotoxicity rating (0-100), SORHA ([6]; 250 g ai/ha): 95
Pre-emerge Herbicidal Activity, phytotoxicity rating (0-100), CHEAL ([7]; 63 g ai/ha): 100
Pre-emerge Herbicidal Activity, phytotoxicity rating (0-100), CHEAL ([7]; 250 g ai/ha): 100
Pre-emerge Herbicidal Activity, phytotoxicity rating (0-100), DIGSA ([8]; 63 g ai/ha): 60
Pre-emerge Herbicidal Activity, phytotoxicity rating (0-100), DIGSA ([8]; 250 g ai/ha): 100
Pre-emerge Herbicidal Activity, phytotoxicity rating (0-100), CASOB ([9]; 63 g ai/ha): 60
Pre-emerge Herbicidal Activity, phytotoxicity rating (0-100), CASOB ([9]; 250 g ai/ha): 100
Pre-emerge Herbicidal Activity, phytotoxicity rating (0-100), ABUTH ([10]; 63 g ai/ha): 100
Pre-emerge Herbicidal Activity, phytotoxicity rating (0-100), ABUTH ([10]; 250 g ai/ha): 100
Pre-emerge phytotoxicity rating (0-100), crop damage, CORN ([11]; 63 g ai/ha): 10
Pre-emerge phytotoxicity rating (0-100), crop damage, CORN ([11]; 250 g ai/ha): 70
Pre-emerge phytotoxicity rating (0-100), crop damage, RICE ([12]; 63 g ai/ha): 20
Pre-emerge phytotoxicity rating (0-100), crop damage, RICE ([12]; 250 g ai/ha): 80
phytotoxicity rating ECHCG ([13]; 63 g ai/ha): 0
phytotoxicity rating ECHCG ([13]; 250 g ai/ha): 10
phytotoxicity rating AMBEL ([14]; 63 g ai/ha): 60
phytotoxicity rating AMBEL ([14]; 250 g ai/ha): 90
phytotoxicity rating SETVI ([15]; 63 g ai/ha): 0
phytotoxicity rating SETVI ([15]; 250 g ai/ha): 50
phytotoxicity rating IPOHE ([16]; 63 g ai/ha): 50
phytotoxicity rating IPOHE ([16]; 250 g ai/ha): 100
phytotoxicity rating SORHA ([17]; 63 g ai/ha): 0
phytotoxicity rating SORHA ([17]; 250 g ai/ha): 30
phytotoxicity rating CHEAL ([18]; 63 g ai/ha): 60
phytotoxicity rating CHEAL ([18]; 250 g ai/ha): 90
phytotoxicity rating DIGSA ([19]; 63 g ai/ha): 0
phytotoxicity rating DIGSA ([19]; 250 g ai/ha): 10
phytotoxicity rating AMARE ([20]; 63 g ai/ha): 50
phytotoxicity rating AMARE ([20]; 250 g ai/ha): 90
phytotoxicity rating CASOB ([21]; 63 g ai/ha): 20
phytotoxicity rating CASOB ([21]; 250 g ai/ha): 70
phytotoxicity rating ABUTH ([22]; 63 g ai/ha): 100
phytotoxicity rating ABUTH ([22]; 250 g ai/ha): 100
phytotoxicity rating CORN ([23]; 63 g ai/ha): 0
phytotoxicity rating CORN ([23]; 250 g ai/ha): 20
phytotoxicity rating RICE ([24]; 63 g ai/ha): 0
phytotoxicity rating RICE ([24]; 250 g ai/ha): 10

COc1c(Cl)cc(F)c(-n2c(=O)cc(C(F)(F)F)n(C)c2=O)c1NC(=O)c1cccc(Cl)c1 [2-54]
Pre-emerge Herbicidal Activity, phytotoxicity rating (0-100), AMARE ([1]; 63 g ai/ha): 100
Pre-emerge Herbicidal Activity, phytotoxicity rating (0-100), AMARE ([1]; 250 g ai/ha): 100
Pre-emerge Herbicidal Activity, phytotoxicity rating (0-100), ECHCG ([2]; 63 g ai/ha): 90
Pre-emerge Herbicidal Activity, phytotoxicity rating (0-100), ECHCG ([2]; 250 g ai/ha): 100
Pre-emerge Herbicidal Activity, phytotoxicity rating (0-100), AMBEL ([3]; 63 g ai/ha): 100
Pre-emerge Herbicidal Activity, phytotoxicity rating (0-100), AMBEL ([3]; 250 g ai/ha): 100
Pre-emerge Herbicidal Activity, phytotoxicity rating (0-100), SETVI ([4]; 63 g ai/ha): 100
Pre-emerge Herbicidal Activity, phytotoxicity rating (0-100), SETVI ([4]; 250 g ai/ha): 100
Pre-emerge Herbicidal Activity, phytotoxicity rating (0-100), IPOHE ([5]; 63 g ai/ha): 85
Pre-emerge Herbicidal Activity, phytotoxicity rating (0-100), IPOHE ([5]; 250 g ai/ha): 100
Pre-emerge Herbicidal Activity, phytotoxicity rating (0-100), SORHA ([6]; 63 g ai/ha): 90
Pre-emerge Herbicidal Activity, phytotoxicity rating (0-100), SORHA ([6]; 250 g ai/ha): 100
Pre-emerge Herbicidal Activity, phytotoxicity rating (0-100), CHEAL ([7]; 63 g ai/ha): 100
Pre-emerge Herbicidal Activity, phytotoxicity rating (0-100), CHEAL ([7]; 250 g ai/ha): 100
Pre-emerge Herbicidal Activity, phytotoxicity rating (0-100), DIGSA ([8]; 63 g ai/ha): 100
Pre-emerge Herbicidal Activity, phytotoxicity rating (0-100), DIGSA ([8]; 250 g ai/ha): 100
Pre-emerge Herbicidal Activity, phytotoxicity rating (0-100), CASOB ([9]; 63 g ai/ha): 100
Pre-emerge Herbicidal Activity, phytotoxicity rating (0-100), CASOB ([9]; 250 g ai/ha): 100
Pre-emerge Herbicidal Activity, phytotoxicity rating (0-100), ABUTH ([10]; 63 g ai/ha): 100
Pre-emerge Herbicidal Activity, phytotoxicity rating (0-100), ABUTH ([10]; 250 g ai/ha): 100
Pre-emerge phytotoxicity rating (0-100), crop damage, CORN ([11]; 63 g ai/ha): 90
Pre-emerge phytotoxicity rating (0-100), crop damage, CORN ([11]; 250 g ai/ha): 98
Pre-emerge phytotoxicity rating (0-100), crop damage, RICE ([12]; 63 g ai/ha): 70
Pre-emerge phytotoxicity rating (0-100), crop damage, RICE ([12]; 250 g ai/ha): 90
phytotoxicity rating ECHCG ([13]; 63 g ai/ha): 20
phytotoxicity rating ECHCG ([13]; 250 g ai/ha): 90
phytotoxicity rating AMBEL ([14]; 63 g ai/ha): 90
phytotoxicity rating AMBEL ([14]; 250 g ai/ha): 100
phytotoxicity rating SETVI ([15]; 63 g ai/ha): 10
phytotoxicity rating SETVI ([15]; 250 g ai/ha): 50
phytotoxicity rating IPOHE ([16]; 63 g ai/ha): 100
phytotoxicity rating IPOHE ([16]; 250 g ai/ha): 100
phytotoxicity rating SORHA ([17]; 63 g ai/ha): 50
phytotoxicity rating SORHA ([17]; 250 g ai/ha): 80
phytotoxicity rating CHEAL ([18]; 63 g ai/ha): 100
phytotoxicity rating CHEAL ([18]; 250 g ai/ha): 100
phytotoxicity rating DIGSA ([19]; 63 g ai/ha): 10
phytotoxicity rating DIGSA ([19]; 250 g ai/ha): 20
phytotoxicity rating AMARE ([20]; 63 g ai/ha): 100
phytotoxicity rating AMARE ([20]; 250 g ai/ha): 100
phytotoxicity rating CASOB ([21]; 63 g ai/ha): 90
phytotoxicity rating CASOB ([21]; 250 g ai/ha): 100
phytotoxicity rating ABUTH ([22]; 63 g ai/ha): 100
phytotoxicity rating ABUTH ([22]; 250 g ai/ha): 100
phytotoxicity rating CORN ([23]; 63 g ai/ha): 80
phytotoxicity rating CORN ([23]; 250 g ai/ha): 80
phytotoxicity rating RICE ([24]; 63 g ai/ha): 90
phytotoxicity rating RICE ([24]; 250 g ai/ha): 95

Source: patent US6355799B1, “Substituted benzene compounds, process for their preparation, and herbicidal and defoliant compositions containing them” (ISK Americas Incorporated, priority 1997, dated 2002)
